Here are results for two compounds from US9468670B2, “Melatonin-based treatment and diagnosis of bile duct disease” (Texas A&M University System, priority 2011, dated 2016).

Marks after values point to notes of the source that are not given here.

Series [1] relates to large cholangiocytes. Description: Secretin-stimulated cAMP levels (RIA) in purified large cholangiocytes from treated BDL rats. Type of series: in vivo, rat. To be noted: cholangiocytes from BDL rats treated with melatonin for 1 week; secretin 100 nM, 5 minutes. Here is the method: The effect of secretin on cAMP levels was evaluated in purified large cholangiocytes and bile and bicarbonate secretion was evaluated in bile fistula rats, two functional indices of cholangiocyte hyperplasia (Alpini et al., 1998; Alpini et al., 1988; LeSage et al., 1999). Following purification, large cholangiocytes (1×10^5 cells) were incubated for 1 hour at 37° C. (Ishii et al., 1989) before stimulation with 0.2% bovine serum albumin (BSA) or secretin (100 nM) for 5 minutes at room temperature (Kato et al., 1992; LeSage et al., 1999; LeSage et al., 2004) before evaluation of cAMP levels by RIA (Alpini et al., 1998; Kato et al., 1992; LeSage et al., 1999; LeSage et al., 2004). For the studies of biliary physiology, after anesthesia, rats were surgically prepared for bile collection as described by us (Alpini et al., 1988). When steady-state bile flow was reached (60-70 minutes from the intravenous infusion of Krebs-Ringer-Henseleit solution, KRH), the animals were infused with secretin (100 nM) (LeSage et al., 1999; LeSage et al., 2004) for 30 minutes followed by IV infusion of KRH for 30 minutes (LeSage et al., 1999; LeSage et al., 2004). Bicarbonate concentration in bile was determined by an ABL™ 520 Blood Gas System (Radiometer Medical A/S, Copenhagen, Denmark).
(In general: Cyclic AMP is a second messenger, typically raised through Gs and lowered through Gi signalling.)

The test system of series [2] is miR-34a. Description: miRNA expression in melatonin treated xenograft tumor tissues. To be noted: melatonin treatment in vivo. On the procedure:
Methods: miRNA expression in normal human cholangiocytes (HiBECs), and the CCA cell lines Mz-ChA-1 and TFK cells, as well as melatonin treated xenograft tumor tissues were evaluated using a hybridization-based miRNA microarray. The expression of selected mature miRNAs was also assessed by real-time PCR. The effect of selected miRNAs on cell growth and invasion was assessed using miRNA modulators to alter cellular expression. Cell migration and invasion through a matrigel layer was quantitated using commercial assays. BCL-2, period homolog 1 (PER1) and tissue inhibitor of metalloproteinases 3 (TIMP-3) mRNA expression was quantitated by real-time PCR analysis.

Series [3] in a line: Liver weight, body weight and liver to body weight ratio in normal and BDL rats. Type of series: in vivo, rat. To be noted: tap water containing melatonin (20 mg/L) for 1 week. Here is the method:
Male 344 Fischer rats (150-175 g) were purchased from Charles River (Wilmington, Mass.) and kept in a temperature-controlled environment (22° C.) with 12:12 hr light/dark cycles. Animals were fed ad libitum and had free access to food and drinking water. […] Before each surgical procedure, animals were anesthetized with sodium pentobarbital (50 mg/kg BW, IP). All animal experiments were performed in accordance with a protocol approved by the Scott and White and Texas A&M Health Science Center Institutional Animal Care and Use Committee and conform to the Guide for the Care and Use of Laboratory Animals published by the US National Institutes of Health (NIH Publication No. 85-23, revised 1996). In all animals, wet liver weight, body weight, wet liver weight to body weight ratio, and an index of liver cell growth including cholangiocytes were measured ([…] et al., 1988).

The subject of series [4] is CCA lines. The series is described as follows: Proliferation by MTS assay in CCA lines and H69. The note with it: melatonin 10-7 to 10-11 M, 24-72 hours. Type of series: cell-based, human. Here is the method: Methods: Melatonin immunoreactivity, the expression of melatonin biosynthesis enzymes and receptors were assessed by immunohistochemistry in tissue arrays from normal and CCA patients, and by qPCR and immunoblots in intra-hepatic and extra-hepatic CCA cell lines, and a normal cholangiocyte line (H69). Proliferation was evaluated in vitro by MTS assay in CCA lines and H69 after treatment with melatonin (10-7 to 10-11 M, 24-72 hours). In parallel, the expression of CLOCK after melatonin treatment (10-11 M for 48 hours) was assessed in CCA lines and normal cholangiocytes by qPCR.

Series [5] is described as follows: H&E evaluation of organ damage in melatonin-treated rats. It is filed as in vivo, rat. To be noted: normal and BDL rats treated with melatonin. Here is the method: The following was also evaluated in paraffin-embedded liver sections ([…]): (i) lobular necrosis; (ii) the intrahepatic bile duct mass (IBDM) of large ([…]) (Alpini et al., 1997; Glaser et al., 2009) cholangiocytes, the only biliary cell types proliferating following BDL (Alpini et al., 1998; Glaser et al., 2009) and (iii) the percentage of cholangiocyte apoptosis by semiquantitative terminal deoxynucleotidyltransferase biotin-dUTP nick-end labeling (TUNEL) kit (Apoptag; Chemicon International, Inc.) (Glaser et al., 2010). Lobular necrosis was measured in liver sections stained for hematoxylin and eosin (Glaser et al., 2010). Lobular necrosis was scored as follows: −=0 foci; +/−=<2 foci; +=2-4 foci; and ++=>4 foci (Glaser et al., 2010). The IBDM was measured as area occupied by CK-19 positive-bile duct/total area×100 (Glaser et al., 2010). It was also evaluated by H&E of sections if melatonin administration induces the damage of kidney, heart, stomach, spleen and small and large intestine of normal and BDL rats. The sections from the selected were evaluated in a blinded-fashion by two board-certified pathologists by a BX-51 light microscope (Olympus, Tokyo, Japan) equipped with a camera.

Series [6] has as its target T1, AANAT (Rattus norvegicus, UniProt Q64666).
T1 construct: the expression of AANAT in liver sections and cholangiocytes from the selected groups of animals; from tissue; host or cells: Male Fischer 344 rats: liver sections, total liver, isolated cholangiocytes, pineal gland, small intestine, serum
Description: Melatonin levels in serum and cholangiocyte supernatant (ELISA) of Morpholino-treated rats. To be noted: normal rats. Type of series: in vivo. Here is the method:
In separate experiments, normal rats treated with Vivo-Morpholino sequences of AANAT (5'-[…] NO:1), to reduce the biliary expression of AANAT) or Morpholino mismatched (5'-[…] NO:2)) (Gene Tools LCC) (1 mg/Kg BW/day) for 1 week via an implanted portal vein catheter. Serum, liver tissue, cholangiocytes, kidney, spleen, small intestine, stomach and heart were collected. Since our goal was to knock-down AANAT expression in the liver without inhibiting AANAT expression in other organs, we used a lower dose (1 mg/Kg/day) of Vivo-Morpholino than that described in the original study (3.0 mg/kg/day (Arora et al., 2002). This approach minimizes the amount of Vivo-Morpholino that circulates outside of the liver after slow infusion into the portal vein. See below for the surgical procedure for the implantation of the portal vein catheter by which AANAT Vivo-Morpholino or Morpholino mismatched was administered. Melatonin levels in serum and medium of primary cultures of isolated cholangiocytes were determined by ELISA kits (Genway, San Diego, Calif.). Supernatants were obtained from cholangiocytes (1×10^7 cells/ml) that were incubated for 6 hours at 37° C. (Glaser et al., 2008).
Background: In an ELISA, binding on a coated surface is turned into a signal by an enzyme label.

T1 sequence (Q64666 whole entry): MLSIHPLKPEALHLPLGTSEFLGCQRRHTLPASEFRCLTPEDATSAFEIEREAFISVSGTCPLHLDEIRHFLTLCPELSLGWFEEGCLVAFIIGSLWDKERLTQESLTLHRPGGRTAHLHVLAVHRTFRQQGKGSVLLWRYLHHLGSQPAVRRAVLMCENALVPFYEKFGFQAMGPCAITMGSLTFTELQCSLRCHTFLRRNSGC

For the compound `COc1ccc2[nH]cc(CCNC(C)=O)c2c1` [melatonin], the “Effect of secretin on cAMP levels of large cholangiocytes” value in series [1] is “did not enhance”. Besides, the “miR-34a expression in Mz-ChA-1 xenograft tumor” value in series [2] was “significant reduction”. In series [3] (BDL rats), the Body weight is 150.1 ± 7.9 gm, the “Liver to body weight ratio” value amounted to 4.5 ± 0.1 and the Liver weight is on record as 6.7 ± 0.1 gm. Moreover, the Body weight in series [3] (normal rats) came out at 206.6 ± 3.9 gm. Moreover, the “Decrease in CCA growth compared to normal cholangiocytes” value in series [4] is 65%. Moreover, the “Morphological damage of kidney, heart, stomach, spleen and small and large intestine” value in series [5] was “No morphological damage”.

Consider “AANAT Vivo-Morpholino: Vivo-Morpholino sequence of AANAT 5′-GTTCCCCAGCTTTGGAAGTGGTCCC (SEQ ID NO:1), to reduce the biliary expression of AANAT (all phosphorodiamidate morpholino (PMO); Vivo-Morpholino delivery moiety attached, position not given here, further chemistry not fully specified)”, for which the Melatonin supernatant in series [6] (cholangiocyte supernatant, 6 hours at 37° C., 1 mg/Kg BW/day for 1 week) is listed as 3.2 ± 0.2^a pg/ml. The Melatonin serum in series [6] (1 mg/Kg BW/day for 1 week via portal vein catheter) is given as 58.4 ± 8.7^a pg/ml.
